# Literature values, collected in patent US8945508B2, “Dendrimer compositions and methods of synthesis” (priority 2009, dated 2015).
# How the values were obtained:
# [1] = more cytotoxic than IRINOTECAN
smiles,measurement,setting,value
"CC[C@@]1(O)C(=O)OCc2c1cc1n(c2=O)Cc2cc3cc(O)ccc3nc2-1 [SN-38, 10-hydroxycamptothecin]",cytotoxicity relative to IRINOTECAN,[1],1000 fold
N.N.[Cl][Pt][Cl] [cisplatin],in vivo activity in solid tumor models,solid tumors,no effect
